Assay [1] concerns the target T1, human Edg-1(S1P1) (Homo sapiens, UniProt P21453).
T1 construct: expressed in transfected cells; host or cells: HEK-293
Kind of assay: Membrane system binding test: inhibition of [33P]-S1P binding to the membrane fraction of Edg-1(S1P1) gene transferred HEK-293 cells. Particulars: 10 μM compound; [33P]-S1P 0.1 nM; membrane fraction of Edg-1(S1P1) gene transferred HEK-293 cells; read-out: Membrane system binding test % inhibition (10 μM). The procedure, abridged: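 Membranes from HEK-293 cells transfected with Edg-1(S1P1) incubated 1 h at 30 °C with 0.1 nM [^33P]-S1P and compound at 10^−5 M (0.1% DMSO), pH 7.4 buffer with fatty acid-free BSA. Filter-bound radioactivity counted; inhibition rate calculated against no-compound binding, with untransfected-cell background subtracted.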

Assay [2] concerns the target T1, human Edg-1(S1P1). The assay can be described thus: Cell system binding test: inhibition of [3H]-S1P binding to Edg-1(S1P1) gene transferred HEK-293 cells. To be noted: 10 μM compound, [3H]-S1P 10 nM, read-out: Cell system binding test % inhibition (10 μM).

T1 sequence (P21453 whole entry): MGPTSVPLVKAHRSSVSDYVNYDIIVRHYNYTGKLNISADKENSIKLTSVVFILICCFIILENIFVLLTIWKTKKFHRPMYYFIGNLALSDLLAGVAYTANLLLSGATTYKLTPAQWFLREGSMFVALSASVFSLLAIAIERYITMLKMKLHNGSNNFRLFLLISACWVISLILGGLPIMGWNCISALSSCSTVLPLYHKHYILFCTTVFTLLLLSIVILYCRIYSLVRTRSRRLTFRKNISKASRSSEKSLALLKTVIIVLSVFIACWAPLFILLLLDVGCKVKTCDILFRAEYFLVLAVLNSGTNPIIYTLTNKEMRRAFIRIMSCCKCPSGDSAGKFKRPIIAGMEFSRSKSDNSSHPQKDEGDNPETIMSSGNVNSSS

In the case of `CCn1c(OC)nnc1[C@H](C)NS(=O)(=O)c1ccc(NC(C)=O)cc1` [Compound 198], the inhibition at 10 µM was 46.7% at human Edg-1(S1P1) [1] and 92.5% at human Edg-1(S1P1) [2].
In the same order, the values of `CCn1c(OC)nnc1[C@@H](C)NS(=O)(=O)c1ccc(C(C)=O)cc1` [Compound 199] are 54.9% and 93%.
In the same order, the values of `CCn1c(OC)nnc1[C@@H](C)NS(=O)(=O)c1ccc(Br)cc1` [Compound 200] are 93.3% and 97.4%.
As to `CCn1c(OC)nnc1[C@H](C)NS(=O)(=O)c1ccc(C(C)(C)C)cc1` [Compound 201], the inhibition at 10 µM stood at 45.3% at human Edg-1(S1P1) [1] and 92.6% on human Edg-1(S1P1) [2].
In the same order, the values of `CCCCS(=O)(=O)N[C@H](C)c1nnc(OC)n1CC` [Compound 202] are 60.3% and 96.6%.
As for `CCn1c(OC)nnc1[C@@H](C)NS(=O)(=O)c1cc(Br)c(Br)s1` [Compound 203], the inhibition at 10 µM turned out to be 88.3% at human Edg-1(S1P1) [1] and 97.9% on human Edg-1(S1P1) [2].
For `CCn1c(OC)nnc1[C@H](C)NS(=O)(=O)c1ccccc1Br` [Compound 204], in that order: 45.4% and 97.8%.
In the same order, the values of `CCCCOc1ccc(S(=O)(=O)N[C@@H](C)c2nnc(OC)n2CC)cc1` [Compound 205] are 47.4% and 99.6%.
For `CCn1c(OC)nnc1[C@@H](C)NS(=O)(=O)c1cccc(Br)c1` [Compound 206], in that order: 86.2% and 103%.
Take `CCCCc1ccc(S(=O)(=O)N[C@H](C)c2nnc(OC)n2CC)cc1` [Compound 207]: the values for the inhibition at 10 µM on human Edg-1(S1P1) [1] and at human Edg-1(S1P1) [2] were 43.5% and 95.8%, respectively.
For `CCn1c(OC)nnc1[C@@H](C)NS(=O)(=O)c1ccc(Br)s1` [Compound 208], in that order: 93% and 99.9%.
For `CCn1c(OC)nnc1[C@H](C)NS(=O)(=O)c1ccc(Cl)c([N+](=O)[O-])c1` [Compound 209], in that order: 104% and 91.4%.
For `CCn1c(OC)nnc1[C@@H](C)NS(=O)(=O)CCCCl` [Compound 210], in that order: 46.6% and 91.8%.
`CCn1c(OC)nnc1[C@@H](C)NS(=O)(=O)c1ccc(NC(C)=O)c(Cl)c1` [Compound 211]: the inhibition at 10 µM at human Edg-1(S1P1) [1] is 46.9%; on human Edg-1(S1P1) [2], 93.9%.
As to `CCn1c(OC)nnc1[C@@H](C)NS(=O)(=O)c1ccccc1C#N` [Compound 212], the inhibition at 10 µM on human Edg-1(S1P1) [1] came out at 45.6%; on human Edg-1(S1P1) [2], 92.4%.
For `CCn1c(OC)nnc1[C@@H](C)NS(=O)(=O)c1cccc(C#N)c1` [Compound 213], in that order: 66.1% and 96.2%.
In the same order, the values of `CCn1c(OC)nnc1[C@@H](C)NS(=O)(=O)c1sc2ccc(Cl)cc2c1C` [Compound 214] are 59.3% and 96.8%.
For `CCn1c(OC)nnc1[C@@H](C)NS(=O)(=O)c1ccc(C)c(Cl)c1` [Compound 215], in that order: 94.4% and 98.3%.
With `CCn1c(OC)nnc1[C@@H](C)NS(=O)(=O)c1cc(Cl)cc(Cl)c1O` [Compound 216], the inhibition at 10 µM at human Edg-1(S1P1) [1] worked out at 63.7%; at human Edg-1(S1P1) [2] it was 97.2%.
Turning to `CCn1c(OC)nnc1[C@@H](C)NS(=O)(=O)c1cc(Cl)sc1Cl` [Compound 217], the inhibition at 10 µM on human Edg-1(S1P1) [1] amounted to 62.3%; on human Edg-1(S1P1) [2] it was 97.4%.
In the same order, the values of `CCn1c(OC)nnc1[C@@H](C)NS(=O)(=O)c1cccc2c(N(C)C)cccc12` [Compound 218] are 40.2% and 101%.
In the same order, the values of `CCn1c(OC)nnc1[C@@H](C)NS(=O)(=O)c1cc(Cl)c(Cl)s1` [Compound 220] are 98% and 97.2%.
For `CCn1c(OC)nnc1[C@@H](C)NS(=O)(=O)c1ccc(OC)c(OC)c1` [Compound 221], in that order: 56.1% and 89.9%.
Consider `CCc1ccc(S(=O)(=O)N[C@H](C)c2nnc(OC)n2CC)cc1` [Compound 222], for which the figures for the inhibition at 10 µM at human Edg-1(S1P1) [1] and on human Edg-1(S1P1) [2] were 71.8% and 92.9%, respectively.
In the same order, the values of `CCn1c(OC)nnc1[C@@H](C)NS(=O)(=O)c1ccc(F)cc1` [Compound 223] are 70.4% and 95.5%.
For `CCn1c(OC)nnc1[C@@H](C)NS(=O)(=O)C(C)C` [Compound 224], in that order: 54.5% and 92.2%.
Consider `CCn1c(OC)nnc1[C@@H](C)NS(=O)(=O)c1ccc(OC)cc1` [Compound 226], for which the figures for the inhibition at 10 µM on human Edg-1(S1P1) [1] and on human Edg-1(S1P1) [2] were 42.4% and 92.3%, respectively.
For `CCn1c(OC)nnc1[C@@H](C)NS(C)(=O)=O` [Compound 227], in that order: 52% and 92.6%.
For `CCn1c(OC)nnc1[C@@H](C)NS(=O)(=O)c1cccc2ccccc12` [Compound 229], in that order: 61.1% and 102%.
For `CCn1c(OC)nnc1[C@@H](C)NS(=O)(=O)c1ccc2ccccc2c1` [Compound 230], in that order: 102% and 103%.
Regarding `CCn1c(OC)nnc1[C@@H](C)NS(=O)(=O)c1ccccc1[N+](=O)[O-]` [Compound 231], the inhibition at 10 µM came out at 40.3% on human Edg-1(S1P1) [1] and 96.6% at human Edg-1(S1P1) [2].
For `CCn1c(OC)nnc1[C@@H](C)NS(=O)(=O)c1ccc([N+](=O)[O-])cc1` [Compound 233], in that order: 93.2% and 99.8%.
In the same order, the values of `CCn1c(OC)nnc1[C@@H](C)NS(=O)(=O)CCc1cccc2ccccc12` [Compound 235] are 63.8% and 111%.
In the same order, the values of `CCn1c(OC)nnc1[C@@H](C)NS(=O)(=O)c1c(F)c(F)c(F)c(F)c1F` [Compound 237] are 52.5% and 95.4%.
`CCn1c(OC)nnc1[C@@H](C)NS(=O)(=O)c1ccc(I)cc1` [Compound 238]: the inhibition at 10 µM was determined as 79.1% at human Edg-1(S1P1) [1] and 99.1% at human Edg-1(S1P1) [2].
With `CCn1c(OC)nnc1[C@@H](C)NS(=O)(=O)c1cccc2cccnc12` [Compound 240], the inhibition at 10 µM at human Edg-1(S1P1) [1] stood at 70.3%; at human Edg-1(S1P1) [2], 93.4%.
As to `CCn1c(OC)nnc1[C@@H](C)NS(=O)(=O)/C=C/c1ccccc1` [Compound 241], the inhibition at 10 µM on human Edg-1(S1P1) [1] turned out to be 80.5%; on human Edg-1(S1P1) [2], 102%.
In the same order, the values of `CCn1c(OC)nnc1[C@@H](C)NS(=O)(=O)c1cccs1` [Compound 242] are 49.9% and 100%.
As for `CCn1c(OC)nnc1[C@@H](C)NS(=O)(=O)c1ccc(C)cc1` [Compound 243], the inhibition at 10 µM came out at 66% on human Edg-1(S1P1) [1] and 102% on human Edg-1(S1P1) [2].
In the same order, the values of `CCn1c(OC)nnc1[C@@H](C)NS(=O)(=O)c1cccc(C(F)(F)F)c1` [Compound 245] are 87.7% and 96.8%.
In the same order, the values of `CCn1c(OC)nnc1[C@@H](C)NS(=O)(=O)c1ccccc1C` [Compound 246] are 61.8% and 98.1%.
As to `CCn1c(OC)nnc1[C@@H](C)NS(=O)(=O)c1ccc(OC(F)(F)F)cc1` [Compound 247], the inhibition at 10 µM at human Edg-1(S1P1) [1] was determined as 52%; on human Edg-1(S1P1) [2], 95.3%.
`CCn1c(OC)nnc1[C@@H](C)NS(=O)(=O)c1cccc(C)c1` [Compound 248]: the results for the inhibition at 10 µM on human Edg-1(S1P1) [1] and at human Edg-1(S1P1) [2] were 83.3% and 99.5%, respectively.
On to `CCn1c(OC)nnc1[C@@H](C)NS(=O)(=O)c1ccc(C(F)(F)F)cc1` [Compound 249], for which the inhibition at 10 µM at human Edg-1(S1P1) [1] amounted to 86.3%; on human Edg-1(S1P1) [2], 101%.
For `CCn1c(OC)nnc1[C@@H](C)NS(=O)(=O)c1cc(S(=O)(=O)c2ccccc2)cs1` [Compound 250], in that order: 42.9% and 88.7%.
For `CCn1c(OC)nnc1[C@@H](C)NS(=O)(=O)c1cnc(Cl)c(Br)c1` [Compound 251], in that order: 106% and 102%.
In the same order, the values of `CCn1c(OC)nnc1[C@@H](C)NS(=O)(=O)c1cc(Br)c(Cl)s1` [Compound 252] are 100% and 103%.
With `CCn1c(OC)nnc1[C@@H](C)NS(=O)(=O)c1ccsc1C(=O)OC` [Compound 255], the inhibition at 10 µM on human Edg-1(S1P1) [1] is 48.3%; on human Edg-1(S1P1) [2], 96.3%.
Consider `CCn1c(OC)nnc1[C@@H](C)NS(=O)(=O)c1cc(C(=O)OC)c(C)o1` [Compound 257], for which the figures for the inhibition at 10 µM on human Edg-1(S1P1) [1] and on human Edg-1(S1P1) [2] were 58.1% and 95.7%, respectively.
In the same order, the values of `CCn1c(OC)nnc1[C@@H](C)NS(=O)(=O)c1ccccc1C(F)(F)F` [Compound 260] are 46.9% and 89.4%.
For `CCn1c(OC)nnc1[C@@H](C)NS(=O)(=O)c1ccc(-c2ccccc2)cc1` [Compound 261], in that order: 56.7% and 94.5%.
For `CCCc1ccc(S(=O)(=O)N[C@H](C)c2nnc(OC)n2CC)cc1` [Compound 262], in that order: 68.8% and 96.5%.
As for `CCn1c(OC)nnc1[C@@H](C)NS(=O)(=O)c1ccc(C)cc1OC` [Compound 264], the inhibition at 10 µM was determined as 42.7% on human Edg-1(S1P1) [1] and 95.8% at human Edg-1(S1P1) [2].

Usually inhibition stands for the relative decrease from the control value, in per cent.

Values taken from patent US8022225B2, “Triazole derivative” (Taisho Pharmaceutical Co., Ltd, priority 2004, dated 2011).
